Structures are written as SMILES.

Assay [1] has as its system Erlotinib-resistant HCC-827 cells. The assay can be described thus: Apoptosis assay (Annexin V/7-AAD flow cytometry), Erlotinib-resistant HCC-827 cells. The format is cell-based, human. As to conditions: 24 h. The protocol:
Afterwards, the cell culture supernatant from each well was collected. […] The supernatants were then returned to each well to neutralize the Accutase solution and the cells were centrifuged at 3000 rpm, at 4 °C for 5 min. The cell pellets were washed twice with cold PBS and centrifuged again. […] Cells were resuspended in 1 x binding buffer and incubated with PE Annexin V and 7-AAD at 4 °C for 30 min. Apoptosis was measured using an LSR II flow cytometer (BD Bioscience). Experiments were carried out in at least triplicate. […]
Background: A flow cytometer gives signals particle by particle.

The next assay concerns parental HCC-827 cells. The assay can be described thus: Apoptosis assay (Annexin V/7-AAD flow cytometry), parental HCC-827 cells. Format: cell-based, human. The note with it: 24 h. The protocol:
Afterwards, the cell culture supernatant from each well was collected. […] The supernatants were then returned to each well to neutralize the Accutase solution and the cells were centrifuged at 3000 rpm, at 4 °C for 5 min. The cell pellets were washed twice with cold PBS and centrifuged again. […] Cells were resuspended in 1 x binding buffer and incubated with PE Annexin V and 7-AAD at 4 °C for 30 min. Apoptosis was measured using an LSR II flow cytometer (BD Bioscience). Experiments were carried out in at least triplicate.

In the case of `C#Cc1cccc(Nc2ncnc3cc(OCCOC)c(OCCOC)cc23)c1` [Erlotinib], the apoptosis entry in assay [1] (10 nM) is listed as “did not show increased apoptosis”; in the assay with parental HCC-827 cells (1 nM) it was “significant increase in apoptosis”. Moreover, in assay [1] (1 µM), the “increase of the apoptotic rate” value is on record as “only a twofold increase”. The induction of apoptosis entry in the assay on parental HCC-827 cells (1 µM) is listed as “more than tenfold induction of apoptosis”.

(Values after paper PMC5727211, “Development of Erasin: a chromone-based STAT3 inhibitor which induces apoptosis in Erlotinib-resistant lung cancer cells” (Scientific Reports, 2017).)
